# Where a name gives a salt, the structure may show the parent alone.
# Test system: QT interval
# Assay: Antiarrhythmic Class III action in guinea pigs after intravenous administration (QT interval prolongation in the ECG)
# Type: in vivo, Pirbright white guinea pigs
# Settings: Cavia porcellus, anesthetized with urethane, ED 20% from linear relationship between log dose and relative QT prolongation (Δ%)
# Description: The experimental animals used are male and female Pirbright white guinea pigs weighing from 300 to 500 g. Anesthesia is effected with 1.5 g/kg of urethane administered intraperitoneally. The substances are administered intravenously. To measure the ECG conduction times and the heart rate, the II. limb lead is recorded. The relevant parameters are the QT and PQ intervals and the heart rate. From 4 to 6 animals are used per dose. The criterion for Class III action is an increase in the QT interval compared with the values prior to administration of the substance. An increase in the PQ interval and a sharp decrease in the heart rate serve as exclusion criteria. The ED 20% is calculated from the linear relationship between log dose (mg/kg) of the substance and the relative prolongation of the QT interval (Δ%).
row,SMILES,ED (20%) [mg/kg]
1,"Nc1ccc(C(=O)N2CC3CC(CN(Cc4ccccc4)C3)C2)cc1 [Ambasilide, reference compound]",6.3
2,"O=C(c1ccc(Cl)cc1)N1CC2CC(CN(Cc3ccccc3)C2)C1 [Example 2, 7-benzyl-3-(4-chlorobenzoyl)-3,7-diazabicyclo[3.3.1]nonyl hydrochloride]",4.6
3,"Cc1ccc(NC(=O)N2CC3CC(CN(Cc4ccccc4)C3)C2)cc1 [Example 21, 7-Benzyl-3-(4-methylphenylcarbamyl)-3,7-diazabicyclo[3.3.1]nonane]",2.6
4,"O=C(Nc1ccccc1)N1CC2CC(CN(Cc3ccc(Cl)cc3)C2)C1 [Example 26, 3-(Phenylcarbamyl)-7-(4-chlorobenzyl)-3,7-diazabicyclo[3.3.1]nonane]",3.6
5,"CC(C)NC[C@@H](O)c1ccc(NS(C)(=O)=O)cc1 [D-sotalol, reference compound]",3.6
6,"O=C(Nc1ccc(Cl)cc1)N1CC2CC(CN(Cc3ccccc3)C2)C1 [Example 23, 7-Benzyl-3-(4-chlorophenylcarbamyl)-3,7-diazabicyclo[3.3.1]nonane]",2.4
